Structures can show the parent of a compound that is named as a salt. Non-standard residues stand in square brackets, D forms with d. Residues, ends and D or L forms follow the SMILES beside them. Dopa = N[C@@H](Cc1ccc(O)c(O)c1)C(=O)O
Columns and labels:
Caco-2 cells = test: in vitro; details: Caco-2
[1] = LD-Arg, LD-Lys and LD-Tyr formulations of Experimental Example 12, physical stability (Tables 35-41); format: physicochemical; details: for Physical Stability: room temperature overnight
Method: Formulations as described in the tables below were prepared by adding a CD solution and dissolving all ingredients together. The CD for the LD-Arg formulation was prepared as follows: WFI was added to a bottle, after which Tween® 80 and sodium bisulfite were added, stirred to dissolution, and heated to 60° C. CD was added, stirred for 1-2 minutes to achieve homogenization. Finally, L-Arginine was added, the bottle was flushed with nitrogen, tightly closed and stirred 15 min. Dissolution was verified and the preparation was allowed to cool to ambient temperature. The pH was measured, and the preparation was transferred to a measurement bottle, where the volume was completed to the predefined final volume by adding WFI. The preparation was then filtered through sterile 0.22 μm nylon filter, transferred to 20 ml vials, after which nitrogen was purged into the headspace and the vials were frozen at −20° C. until use.
The CD solution for the LD-Tyr and LD-Lys formulations was prepared as follows: WFI was added to a bottle. Tween® 80 and sodium bisulfite were added, stirred to dissolution and heated to 60° C. CD was added, and stirred for 1-2 minutes to achieve homogenization. NaOH was added, after which the bottle was washed with nitrogen, closed tightly and stirred for 15 minutes. Dissolution was verified and the preparation was allowed to cool to ambient temperature. The pH was measured, and preparation was transferred to a measurement bottle, in which the volume was completed to final predefined volume by adding WFI. The preparation was then filtered through a sterile 0.22 μm nylon filter, transferred to 20 ml vials, after which nitrogen was purged into headspace and the vials were frozen at −20° C. until use.

[2] = 0 weeks
Method: It is noted that the recovery % compared the amount of any given material as measured at t=28 h (or any other presented value) compared to the amount of that material, at measured at t=0.

[3] = t = 12 days, LD-Tyr 37.0%, CD 0.75%, L-Arginine 6.00, NaOH 0, TRIS 13, pH 8.14
[4] = t = 14 days, LD-Tyr 44.0%, CD 0.75%, L-Arginine 25.70, NaOH 0, TRIS 0, pH 8.34
[5] = t = 26 days, LD-Tyr 37.0%, CD 0.75%, L-Arginine 6.00, NaOH 0, TRIS 12.124, pH 8.12
[6] = t = 26 days, LD-Tyr 44.0%, CD 0.75%, L-Arginine 6.76, NaOH 0, TRIS 13.726, pH 8.08

N[C@@H](CSC[C@H](NC(=O)[C@@H](N)Cc1ccc(O)c(O)c1)C(=O)O)C(=O)O (single isomer, unassigned; peak 2) [LD-LA2 TFA salt, Levodopa Lanthionine Peak 2 TFA Salt]
mean permeability compared with the other compounds (in words) (Caco-2 cells): highest mean permeability

N[C@@H](Cc1ccc(O)c(O)c1)C(=O)N[C@@H](Cc1ccc(O)cc1)C(=O)O [LD-Tyr TFA salt, Levodopa Tyrosine TFA Salt] (H-[Dopa]-Tyr-OH)
Physical Stability ([1]; LD-Tyr 20%, Arg 0%, TRIS 8.8%, pH 7.94, molar ratio 1:1.20): Precipitated | Physical Stability ([1]; LD-Tyr 30%, Arg 4.5%, TRIS 9.72%, pH 8.00, molar ratio 1:1.20): Stable | Physical Stability ([1]; LD-Tyr 37%, Arg 5.8%, TRIS 11.7%, pH 8.12, molar ratio 1:1.32): Stable | Physical Stability ([1]; LD-Tyr 44%, Arg 6.8%, TRIS 13.8%, pH 8.02, molar ratio 1:1.20): Stable | Physical Stability ([1]; LD-Tyr 44%, Arg 7.33%, TRIS 14.9%, pH 8.08, molar ratio 1:1.30): Stable | Appearance, 25° C. ([1]; t = 1 days, LD-Tyr 44.0%, CD 0%, L-Arginine 21.4, NaOH 0.60, TRIS 0, pH 8.29): Stable | Appearance, Refrigerated (2-8° C.) ([1]; t = 1 days, LD-Tyr 44.0%, CD 0.75%, L-Arginine 6.27, NaOH 0, TRIS 12.69, pH 8.02): Stable | Appearance, 25° C. ([1]; t = 3 days, LD-Tyr 44.0%, CD 0.75%, L-Arginine 6.27, NaOH 0, TRIS 12.69, pH 8.02): Stable | Appearance, Refrigerated (2-8° C.) ([1]; t = 7 days, LD-Tyr 44.0%, CD 0.75%, L-Arginine 8.00, NaOH 0, TRIS 15, pH 8.15): Stable | Appearance, 25° C. [1, 3]: Stable | Appearance, Refrigerated (2-8° C.) [1, 3]: Stable | Appearance, 25° C. ([1]; t = 12 days, LD-Tyr 44.0%, CD 0.75%, L-Arginine 21.4, NaOH 0.60, TRIS 0, pH 8.29): Stable | Appearance, 25° C. ([1]; t = 14 days, LD-Tyr 44.0%, CD 0.75%, L-Arginine 8.00, NaOH 0, TRIS 15, pH 8.15): Stable | Appearance, 25° C. [1, 4]: Stable | Appearance, Refrigerated (2-8° C.) [1, 4]: Stable | Appearance, 25° C. ([1]; t = 24 days, LD-Tyr 44.0%, CD 0.75%, L-Arginine 21.86, NaOH 0.60, TRIS 0, pH 8.57): Stable | Appearance, 25° C. [1, 5]: Stable | Appearance, Refrigerated (2-8° C.) [1, 5]: Stable | Appearance, 25° C. [1, 6]: Stable | Appearance, Refrigerated (2-8° C.) [1, 6]: Stable | Appearance, 25° C. ([1]; t = 27 days, LD-Tyr 44.0%, CD 0.75%, L-Arginine 25.72, NaOH 0, TRIS 0, pH 8.43): Stable | Appearance, Refrigerated (2-8° C.) ([1]; t = 44 days, LD-Tyr 30.0%, CD 0.75%, L-Arginine 7.00, NaOH 0, TRIS 10.5, pH 8.23): precipitated | Appearance, Refrigerated (2-8° C.) ([1]; t = 50 days, LD-Tyr 30.0%, CD 0.75%, L-Arginine 18.10, NaOH 0, TRIS 0, pH 8.36): Stable | Appearance, Refrigerated (2-8° C.) ([1]; t = 56 days, LD-Tyr 44.0%, CD 0.75%, L-Arginine 21.86, NaOH 0.60, TRIS 0, pH 8.57): Stable | Appearance, 25° C. ([1]; t = 70 days, LD-Tyr 38.0%, CD 0%, L-Arginine 21.90, NaOH 0, TRIS 0, pH 8.43): Stable | Appearance, Refrigerated (2-8° C.) ([1]; t = 70 days, LD-Tyr 44.0%, CD 0.75%, L-Arginine 25.72, NaOH 0, TRIS 0, pH 8.43): Stable | Analytical stability result (HPLC), t = 0 [2]: 327.05

Source: patent US20220362386A1, “LIQUID COMPOSITIONS COMPRISING A LEVODOPA AMINO ACID CONJUGATE AND USES THEREOF” (NeuroDerm, Ltd., priority 2019, published 2022)
